Here are results for one molecule from ChEMBL document CHEMBL6127087 (Eur J Med Chem, 2024).

Calls of active or inactive are those of the source. The calls are words filed in the database; no cut-off is given here.

Data set [1] deals with Mus musculus. In words: Anti-inflammatory activity in LPS-induced male C57BL/6 mouse model of acute […] injury assessed as intact appearance of alveolar structure in lung at 2 to 6 mg/kg, IG preadministered with compound for 7 days followed by LPS administration and measured after 24 hrs by H and E staining based histopathological analysis. Format: functional, organism-based. The conditions noted are these: dose 2-6 mg/kg, time 8.0 day.

Data set [2] can be described thus: Cmax in male Sprague-Dawley rat at 20 mg/kg, po measured after 24 hrs by LC-MS/MS analysis. Format: ADME, organism-based. The conditions noted are these: male, Sprague-Dawley, in vivo, read-out: Cmax.
Data set [3] relates to Mus musculus. In words: Anti-inflammatory activity in LPS-induced male C57BL/6 mouse model of acute […] injury assessed as reduction in neutrophil elastase level in BALF at 2 to 6 mg/kg, IG preadministered with compound for 7 days followed by LPS administration and measured after 24 hrs by ELISA. It counts as functional, organism-based. The conditions noted are these: dose 2-6 mg/kg, time 8.0 day. On the technique in general: An ELISA detects its analyte on a solid surface through an enzyme-linked reagent.

The test system of data set [4] is Mus musculus. In words: Anti-inflammatory activity in LPS-induced male C57BL/6 mouse model of acute […] injury assessed as reduction in lung permeability by measuring tight junction associated proteins at 2 to 6 mg/kg, IG preadministered with compound for 7 days followed by LPS administration and measured after 24 hrs by immunofluorescence analysis. Format: functional, organism-based. The conditions noted are these: dose 2-6 mg/kg, time 8.0 day.

Data set [5] has as its system HEK-293T. In words: Cytotoxicity against HEK293T cells assessed as reduction in cell survival at >10 uM incubated for 12 to 24 hrs by CCK8 assay. Format: toxicity, cell-based. The conditions noted are these: human, time 12-24 hrs. Background: Tetrazolium dyes change colour on reduction, which living cells bring about.
The target in data set [6] is Cytochrome P450 3A4 (Homo sapiens, UniProt P08684). As to the kind of experiment: Inhibition of CYP3A4 in human liver microsomes using midazolam as substrate preincubated for 10 mins followed by NADPH addition and measured after 10 mins by LC-MS/MS analysis. It counts as ADME, Microsome. On the technique in general: Liver microsomes are a subcellular fraction often used to study metabolism.

Data set [7] relates to Mus musculus. As to the kind of experiment: Anti-inflammatory activity in LPS-induced male C57BL/6 mouse model of acute […] injury assessed as inhibition of CXCL1 release at 2 to 6 mg/kg, IG preadministered with compound for 7 days followed by LPS administration and measured after 24 hrs by ELISA. It counts as functional, organism-based. The note with it: dose 2-6 mg/kg, time 8.0 day.

Chain of Cytochrome P450 3A4 (P08684 whole entry): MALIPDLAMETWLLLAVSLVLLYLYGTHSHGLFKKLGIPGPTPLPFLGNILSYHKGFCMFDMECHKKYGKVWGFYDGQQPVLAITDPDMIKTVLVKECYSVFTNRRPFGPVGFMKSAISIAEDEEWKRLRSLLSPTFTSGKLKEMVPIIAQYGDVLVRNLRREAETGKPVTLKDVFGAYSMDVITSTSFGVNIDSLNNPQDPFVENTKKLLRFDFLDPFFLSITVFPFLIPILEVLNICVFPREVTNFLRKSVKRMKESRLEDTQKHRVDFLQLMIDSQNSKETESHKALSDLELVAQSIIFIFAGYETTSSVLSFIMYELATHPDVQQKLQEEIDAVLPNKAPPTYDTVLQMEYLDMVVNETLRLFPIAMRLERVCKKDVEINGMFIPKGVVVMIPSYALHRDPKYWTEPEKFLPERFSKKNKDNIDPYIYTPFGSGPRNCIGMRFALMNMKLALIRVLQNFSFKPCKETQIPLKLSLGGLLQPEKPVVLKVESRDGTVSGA

A word on the Cmax: it is the peak of the concentration-time curve. One may read the IC50 as the concentration needed to halve the response being measured. With `O=C(O)CCC(=O)N1N=C(c2ccc[nH]2)CC1c1cnc2ccccc2c1` (configuration not stated), the result in data set [1], in data set [3], in data set [4] and in data set [7] was Active. For the same molecule, the Cmax in data set [2] is 2940 ng/mL. In addition, in data set [5], the Activity entry was “Non-Toxic”. Moreover, the IC50 in data set [6] was above 50 µM.
